Read-outs that look alike come from different tables or passages of the source.
How the values were obtained:
MOLT-4 = assay: Cell viability assay (MTS) in MOLT-4 cells; format: cell-based; details: Homo sapiens
Procedure: (§1) Acute lymphoblastic leukemia cells (MOLT-4 and RS4; 11) were incubated with increasing concentrations of Bcl-xL degraders for 48 h. Cell viability was measured by tetrazolium-based MTS assay.

RS4; 11 = assay: Cell viability assay (MTS) in RS4; 11 cells; format: cell-based; details: Homo sapiens
Procedure: as §1

[1] = MOLT-4, Table 2, 48 hr, MTS, read-out: Anti-Cancer Activity IC50 (48 hr) MOLT-4
[2] = RS4-11, Table 2, 48 hr, MTS, read-out: Anti-Cancer Activity IC50 (48 hr) RS4, 11
[3] = MOLT-4, 48 h, read-out: Anti-Cancer Activity IC50 (48 hr) MOLT-4
[4] = RS4-11, 48 h, read-out: Anti-Cancer Activity IC50 (48 hr) RS4, 11
[5] = MOLT-4, Table 2A, 48 hr, MTS, read-out: Anti-Cancer Activity IC50 (48 hr) MOLT-4
[6] = RS4-11, Table 2A, 48 hr, MTS, read-out: Anti-Cancer Activity IC50 (48 hr) RS4, 11

Row | Compound | IC50 (MOLT-4; [1]) | IC50 (RS4; 11; [2]) | also measured
1 | Cc1ncsc1-c1ccc([C@H](C)NC(=O)[C@@H]2C[C@@H](O)CN2C(=O)[C@@H](NC(=O)CCCCCNC(=O)c2ccc(N3CCN(CCN(C)CC4(C)CCC(c5ccc(Cl)cc5)=C(CN5CCN(c6ccc(C(=O)NS(=O)(=O)c7ccc(N[C@H](CCN8CCOCC8)CSc8ccccc8)c(S(=O)(=O)C(F)(F)F)c7)cc6)CC5)C4)CC3)nc2)C(C)(C)C)cc1 (some centres unmarked) [Compound 9] | 20 to 100 nM | 20 to 100 nM | 
2 | Cc1ncsc1-c1ccc([C@H](C)NC(=O)[C@@H]2C[C@@H](O)CN2C(=O)[C@@H](NC(=O)CN(C)CCCNC(=O)c2ccc(N3CCN(C[C@]4(C)CCC(c5ccc(Cl)cc5)=C(CN5CCN(c6ccc(C(=O)NS(=O)(=O)c7ccc(N[C@H](CCN8CCCOCC8)CSc8ccccc8)c(S(=O)(=O)C(F)(F)F)c7)cc6)CC5)C4)CC3)nn2)C(C)(C)C)cc1 [Compound 112] |  |  | IC50 (MOLT-4; [3]): 20 to 100 nM; IC50 (RS4; 11; [4]): < 20 nM
3 | Cc1ncsc1-c1ccc([C@H](C)NC(=O)[C@@H]2C[C@@H](O)CN2C(=O)[C@@H](NC(=O)CCCCCCC(=O)N2CCN(C[C@]3(C)CCC(c4ccc(Cl)cc4)=C(CN4CCN(c5ccc(C(=O)NS(=O)(=O)c6ccc(N[C@H](CCN7CCOC[C@H]7C)CSc7ccccc7)c(S(=O)(=O)C(F)(F)F)c6)cc5)CC4)C3)CC2)C(C)(C)C)cc1 [Compound 89, (2S,4R)-1-((S)-2-(8-(4-(((R)-4′-chloro-4-methyl-6-((4-(4-(((4-(((R)-4-((R)-3-methylmorpholino)-1-(phenylthio)butan-2-yl)amino)-3-((trifluoromethyl)sulfonyl)phenyl)sulfonyl)carbamoyl)phenyl)piperazin-1-yl)methyl)-2,3,4,5-tetrahydro-[1,1′-biphenyl]-4-yl)methyl)piperazin-1-yl)-8-oxooctanamido)-3,3-dimethylbutanoyl)-4-hydroxy-N—((S)-1-(4-(4-methylthiazol-5-yl)phenyl)ethyl)pyrrolidine-2-carboxamide] | 20 to 100 nM | < 20 nM | 
4 | Cc1ncsc1-c1ccc([C@H](C)NC(=O)[C@@H]2C[C@@H](O)CN2C(=O)[C@@H](NC(=O)CCCCCCC(=O)N2C(C)CN(C[C@]3(C)CCC(c4ccc(Cl)cc4)=C(CN4CCN(c5ccc(C(=O)NS(=O)(=O)c6ccc(N[C@H](CCN7CCCOCC7)CSc7ccccc7)c(S(=O)(=O)C(F)(F)F)c6)cc5)CC4)C3)CC2C)C(C)(C)C)cc1 (some centres unmarked) [compound 83] | 20 to 100 nM | 100 to 500 nM | 
5 | Cc1ncsc1-c1ccc([C@H](C)NC(=O)[C@@H]2C[C@@H](O)CN2C(=O)[C@@H](NC(=O)CCCCCCC(=O)N2CCN(C[C@]3(C)CCC(c4ccc(Cl)cc4)=C(CN4CCN(c5ccc(C(=O)NS(=O)(=O)c6ccc(N[C@H](CCN7CC8CCC7C8)CSc7ccccc7)c(S(=O)(=O)C(F)(F)F)c6)cc5)CC4)C3)CC2)C(C)(C)C)cc1 (some centres unmarked) [Compound 67] | < 20 nM | < 20 nM | 
6 | Cc1ncsc1-c1ccc([C@H](C)NC(=O)[C@@H]2C[C@@H](O)CN2C(=O)[C@@H](NC(=O)CC2CCN(CC(=O)N3CCN(C[C@]4(C)CCC(c5ccc(Cl)cc5)=C(CN5CCN(c6ccc(C(=O)NS(=O)(=O)c7ccc(N[C@H](CCN8CCCOCC8)CSc8ccccc8)c(S(=O)(=O)C(F)(F)F)c7)cc6)CC5)C4)CC3)CC2)C(C)(C)C)cc1 [Compound 75] | 20 to 100 nM | 20 to 100 nM | 
7 | Cc1ncsc1-c1ccc([C@H](C)NC(=O)[C@@H]2C[C@@H](O)CN2C(=O)[C@@H](NC(=O)CCCCCCC(=O)N2CCN(C[C@]3(C)CCC(c4ccc(Cl)cc4)=C(CN4CCN(c5ccc(C(=O)NS(=O)(=O)c6ccc(N[C@H](CCN7CCc8cccnc8C7)CSc7ccccc7)c(S(=O)(=O)C(F)(F)F)c6)cc5)CC4)C3)CC2)C(C)(C)C)cc1 [Compound 71] | 100 to 500 nM | 20 to 100 nM | 
8 | Cc1ncsc1-c1ccc([C@H](C)NC(=O)[C@@H]2C[C@@H](O)CN2C(=O)[C@@H](NC(=O)CCCCCCNC(=O)c2ccc(N3CCN(C[C@]4(C)CCC(c5ccc(Cl)cc5)=C(CN5CCN(c6ccc(C(=O)NS(=O)(=O)c7ccc(N[C@H](CCN8C[C@H]9C[C@@H]8CO9)CSc8ccccc8)c(S(=O)(=O)C(F)(F)F)c7)cc6)CC5)C4)CC3)nc2)C(C)(C)C)cc1 [Compound 73] | < 20 nM | < 20 nM | IC50 (MOLT-4; MOLT-4, Table 4, 48 h, read-out: MOLT-4 48 h IC50): 7.1 nM; IC50 (RS4; 11; RS4-11, Table 4, 48 h, read-out: RS4 48 h IC50): 13.9 nM
9 | CC(=O)N1CCN(CC[C@H](CSc2ccccc2)Nc2ccc(S(=O)(=O)NC(=O)c3ccc(N4CCN(CC5=C(c6ccc(Cl)cc6)CCC(C)(CN6CCN(C(=O)CCCCCCC(=O)N[C@H](C(=O)N7C[C@H](O)C[C@H]7C(=O)N[C@@H](C)c7ccc(-c8scnc8C)cc7)C(C)(C)C)CC6)C5)CC4)cc3)cc2[N+](=O)[O-])CC1 (stereo partly drawn) [Compound 48, (2S,4R)-1-((2S)-2-(8-(4-((6-((4-(4-(((4-(((R)-4-(4-acetylpiperazin-1-yl)-1-(phenylthio)butan-2-yl)amino)-3-nitrophenyl)sulfonyl)carbamoyl)phenyl)piperazin-1-yl)methyl)-4′-chloro-4-methyl-2,3,4,5-tetrahydro-[1,1′-biphenyl]-4-yl)methyl)piperazin-1-yl)-8-oxooctanamido)-3,3-dimethylbutanoyl)-4-hydroxy-N—((S)-1-(4-(4-methylthiazol-5-yl)phenyl)ethyl)pyrrolidine-2-carboxamide] | 20 to 100 nM | < 20 nM | 
10 | Cc1ncsc1-c1ccc([C@H](C)NC(=O)[C@@H]2C[C@@H](O)CN2C(=O)[C@@H](NC(=O)CCCCCCC(=O)N2CCN(CC3(C)CCC(c4ccc(Cl)cc4)=C(CN4CCN(c5ccc(C(=O)NS(=O)(=O)c6ccc(N[C@H](CCN7CCC(CO)CC7)CSc7ccccc7)c([N+](=O)[O-])c6)cc5)CC4)C3)CC2)C(C)(C)C)cc1 (stereo partly drawn) [Compound 47, (2S,4R)-1-((2S)-2-(8-(4-((4′-chloro-6-((4-(4-(((4-(((R)-4-(4-(hydroxymethyl)piperidin-1-yl)-1-(phenylthio)butan-2-yl)amino)-3-nitrophenyl)sulfonyl)carbamoyl)phenyl)piperazin-1-yl)methyl)-4-methyl-2,3,4,5-tetrahydro-[1,1′-biphenyl]-4-yl)methyl)piperazin-1-yl)-8-oxooctanamido)-3,3-dimethylbutanoyl)-4-hydroxy-N—((S)-1-(4-(4-methylthiazol-5-yl)phenyl)ethyl)pyrrolidine-2-carboxamide] | 100 to 500 nM | 20 to 100 nM | 
11 | Cc1ncsc1-c1ccc([C@H](C)NC(=O)[C@@H]2C[C@@H](O)CN2C(=O)[C@@H](NC(=O)CNC(=O)c2ccc(N3CCN(CCN(C)CC4(C)CCC(c5ccc(Cl)cc5)=C(CN5CCN(c6ccc(C(=O)NS(=O)(=O)c7ccc(N[C@H](CCN8CCOCC8)CSc8ccccc8)c(S(=O)(=O)C(F)(F)F)c7)cc6)CC5)C4)CC3)cc2)C(C)(C)C)cc1 (some centres unmarked) [Compound 13] | 100 to 500 nM | 100 to 500 nM | 
12 | Cc1ncsc1-c1ccc([C@H](C)NC(=O)[C@@H]2C[C@@H](O)CN2C(=O)[C@@H](NC(=O)CN(C)CCC(=O)N2CCC(C3CCN(C[C@]4(C)CCC(c5ccc(Cl)cc5)=C(CN5CCN(c6ccc(C(=O)NS(=O)(=O)c7ccc(N[C@H](CCN8CCCOCC8)CSc8ccccc8)c(S(=O)(=O)C(F)(F)F)c7)cc6)CC5)C4)CC3)CC2)C(C)(C)C)cc1 [Compound 117] |  |  | IC50 (MOLT-4; [5]): 20 to 100 nM; IC50 (RS4; 11; [6]): < 20 nM
13 | Cc1ncsc1-c1ccc([C@H](C)NC(=O)[C@@H]2C[C@@H](O)CN2C(=O)[C@@H](NC(=O)CC2CCN(CC(=O)N3CCN(CC4(C)CCC(c5ccc(Cl)cc5)=C(CN5CCN(c6ccc(C(=O)NS(=O)(=O)c7ccc(N[C@H](CCN8CCOCC8)CSc8ccccc8)c(S(=O)(=O)C(F)(F)F)c7)cc6)CC5)C4)CC3)CC2)C(C)(C)C)cc1 (some centres unmarked) [Compound 27] | 100 to 500 nM | 100 to 500 nM | 
14 | Cc1ncsc1-c1ccc([C@H](C)NC(=O)[C@@H]2C[C@@H](O)CN2C(=O)[C@@H](NC(=O)CN2C3CC2CN(CC(=O)N2CCN(CC4(C)CCC(c5ccc(Cl)cc5)=C(CN5CCN(c6ccc(C(=O)NS(=O)(=O)c7ccc(N[C@H](CCN8CCOCC8)CSc8ccccc8)c(S(=O)(=O)C(F)(F)F)c7)cc6)CC5)C4)CC2)C3)C(C)(C)C)cc1 (some centres unmarked) [Compound 31] |  |  | IC50 (MOLT-4; [3]): 100 to 500 nM; IC50 (RS4; 11; [4]): 100 to 500 nM
15 | Cc1ncsc1-c1ccc([C@H](C)NC(=O)[C@@H]2C[C@@H](O)CN2C(=O)[C@@H](NC(=O)CCCCCCC(=O)N2CCN(C[C@]3(C)CCC(c4ccc(Cl)cc4)=C(CN4CCN(c5ccc(C(=O)NS(=O)(=O)c6ccc(N[C@H](CCN7CCCCCC7)CSc7ccccc7)c([N+](=O)[O-])c6)cc5)CC4)C3)CC2)C(C)(C)C)cc1 [Compound 56] | < 20 nM | < 20 nM | 
16 | Cc1ncsc1-c1ccc([C@H](C)NC(=O)[C@@H]2C[C@@H](O)CN2C(=O)[C@@H](NC(=O)CCCCCCC(=O)N2CCN(C[C@]3(C)CCC(c4ccc(Cl)cc4)=C(CN4CCN(c5ccc(C(=O)NS(=O)(=O)c6ccc(N[C@H](CCN7CCCC(F)(F)C7)CSc7ccccc7)c(S(=O)(=O)C(F)(F)F)c6)cc5)CC4)C3)CC2)C(C)(C)C)cc1 [Compound 88] | 500 to 10000 nM | 500 to 10000 nM | 
17 | Cc1ncsc1-c1ccc([C@H](C)NC(=O)[C@@H]2C[C@@H](O)CN2C(=O)[C@@H](NC(=O)CCCCC(=O)N2CCC(N3CCN(C[C@]4(C)CCC(c5ccc(Cl)cc5)=C(CN5CCN(c6ccc(C(=O)NS(=O)(=O)c7ccc(N[C@H](CCN8CCCOCC8)CSc8ccccc8)c(S(=O)(=O)C(F)(F)F)c7)cc6)CC5)C4)CC3)CC2)C(C)(C)C)cc1 [Compound 120] |  |  | IC50 (MOLT-4; [5]): < 20 nM; IC50 (RS4; 11; [6]): < 20 nM
18 | Cc1ncsc1-c1ccc([C@H](C)NC(=O)[C@@H]2C[C@@H](O)CN2C(=O)[C@@H](NC(=O)CCS(=O)(=O)N2CCN(C[C@]3(C)CCC(c4ccc(Cl)cc4)=C(CN4CCN(c5ccc(C(=O)NS(=O)(=O)c6ccc(N[C@H](CCN7CCCOCC7)CSc7ccccc7)c(S(=O)(=O)C(F)(F)F)c6)cc5)CC4)C3)CC2)C(C)(C)C)cc1 [Compound 109] |  |  | IC50 (MOLT-4; [5]): 100 to 500 nM; IC50 (RS4; 11; [6]): 20 to 100 nM

Source: patent US20250154141A1 (University of Florida Research Foundation, Incorporated, priority 2021, published 2025)
